10 compounds from patent US6677368B2, “4-aryl substituted indolinones” (Sugen, Inc., priority 2000, dated 2004) can be followed below.

One experiment has as its target T1, PDGFR (UniProt P09619).
T1 construct: PDGFR-β expressing NIH 3T3 cell lysate (SUGEN, Inc.)
As to the kind of experiment: PDGFR bioassay (ELISA, in vitro kinase activity). The format is biochemical. As to conditions: PDGFR-β expressing NIH 3T3 cell lysate, 20 μM ATP. How it is done:
This assay is used to the in vitro kinase activity of PDGFR in an ELISA assay.
1. Corning 96-well ELISA plates
2. 28D4C10 monoclonal anti-PDGFR antibody (SUGEN, Inc.).
5. Blocking Buffer (same as for EGFR bioassay).
6. PDGFR-β expressing NIH 3T3 cell lysate (SUGEN, Inc.).
11. Kinase buffer phosphorylation mix: for 10 ml, mix 250 μl 1M TRIS, 200 μl 5M NaCl, 100 μl 1M MnCl2 and 501l 100 mM Triton X-100 in enough dH2O to make 10 ml.
12. NUNC 96-well V bottom polypropylene plates.
14. Rabbit polyclonal anti-phosphotyrosine serum (SUGEN, Inc.).
15. Goat anti-rabbit IgG peroxidase conjugate (Biosource Cat. No. ALI0404).
17. Hydrogen peroxide, 30% solution.
1. Coat Corning 96 well ELISA plates with […] 28D4C 10 in 100 μl PBS per well, hold overnight at 4° C.
2. Remove unbound 28D4C10 from wells by inverting plate to remove liquid. Wash 1× with dH2O. Pat the plate on a paper towel to remove excess liquid.
3. Add 150 μl of Blocking Buffer to each well. Incubate for 30 min. at room temperature with shaking.
4. Wash plate 3× with deionized water, then once with TBST. Pat plate on a paper towel to remove excess liquid and bubbles.
5. Dilute lysate in HNTG (10 μg lysate/100 μl HNTG).
6. Add 100 μl of diluted lysate to each well. Shake at room temperature for 60 min.
7. Wash plates as described in Step 4.
8. Add 80 μl working kinase buffer mix to ELISA plate containing captured PDGFR.
9. Dilute test compound 1:10 in TBS in 96-well polypropylene plates.
10. Add 10 μl diluted test compound to -ELISA plate. To control wells, add 10 μl TBS+10% DMSO. Incubate with shaking for 30 minutes at room temperature.
11. Add 10 μl ATP directly to all wells except negative control well (final well volume should be approximately 100 μl with 20 μM ATP in each well.) Incubate 30 minutes with shaking.
12. Stop reaction by adding 10 μl of EDTA solution to each well.
13. Wash 4× with deionized water, twice with TBST.
14. Add 100 μl anti-phosphotyrosine (1:3000 dilution in TBST) per well.
Incubate with shaking for 30-45 min. at room temperature.
16. Add 100 μl Biosource Goat anti-rabbit IgG peroxidase conjugate (1:2000 dilution in TBST) to each well. Incubate with shaking for 30 min. at room temperature.
18. Add 100 μl of ABTS/H2O2 solution to each well.
19. Incubate 10 to 30 minutes with shaking. Remove any bubbles.
20. If necessary stop reaction with the addition of 100 μl 0.2 M HCl per well.
21. Read assay on Dynatech MR7000 ELISA reader with test filter at 410 nM and reference filter at 630 nM.

In another experiment the target is T2, SRC (Homo sapiens, UniProt P12931).
T2 construct: purchased UBI 14-117
T2 sequence (P12931 whole entry): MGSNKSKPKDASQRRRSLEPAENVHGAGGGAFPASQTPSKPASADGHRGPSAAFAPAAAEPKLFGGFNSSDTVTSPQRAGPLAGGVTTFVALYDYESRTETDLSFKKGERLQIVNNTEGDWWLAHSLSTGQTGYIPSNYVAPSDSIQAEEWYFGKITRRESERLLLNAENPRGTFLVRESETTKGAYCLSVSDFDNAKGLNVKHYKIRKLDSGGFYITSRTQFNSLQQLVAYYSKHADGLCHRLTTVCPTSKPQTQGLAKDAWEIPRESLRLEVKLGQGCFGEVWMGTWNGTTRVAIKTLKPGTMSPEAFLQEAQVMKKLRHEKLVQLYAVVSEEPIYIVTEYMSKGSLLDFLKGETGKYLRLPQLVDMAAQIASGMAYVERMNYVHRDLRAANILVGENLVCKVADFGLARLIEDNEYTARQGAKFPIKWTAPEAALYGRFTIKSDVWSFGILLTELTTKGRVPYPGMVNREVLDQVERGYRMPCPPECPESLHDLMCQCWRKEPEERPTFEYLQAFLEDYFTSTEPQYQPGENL
As to the kind of experiment: Src transphosphorylation assay. The note with it: recombinant human Src, poly(Glu-Tyr) substrate. The format is biochemical. As for the experimental part:
Src Transphosphorylation Assay
This assay is used to screen for inhibitors of the tyrosine kinase Src.
1. Coating buffer: PBS containing sodium azide (0.2 mg/ml).
3. Wash buffer: PBS containing 0.05% v/v Tween 20 (PBS-TWEEN)
5. ATP (40 [M)+MgCl2 (80 mM) in distilled water.
6. MgCl2 (80 mM) in distilled water (for no ATP blanks).
7. Test compounds, 10 mM in DMSO.
8. Assay Buffer: 100 mM HEPES, pH 7.4, containing 2 mM DTT, 0.2 mM sodium orthovanadate and 0.2 mgs/ml BSA.
9. Partially purified recombinant human Src (UBI (14-117)
10. Anti-phosphotyrosine (SUGEN rabbit polyclonal anti-PY).
11. HRP-linked goat anti-rabbit Ig (Biosource International #6430)
12. HRP substrate ABTS or Pierce Peroxidase substrate.
13. Corning ELISA plates.
1. Coat plates with 100 μl of 20 μg/ml poly(Glu-Tyr) (Sigma Cat. No.P0275) containing 0.01% sodium azide. Hold overnight at 4° C.
2. Block with 1% BSA at 100 μl/well for one hour at room temperature.
3. Plate test compounds (10 mM in DMSO) at 2 ul/well on a Costar plate ready for dilution with dH2O and plating to reaction plates.
4. Dilute Src kinase 1:10,000 in Reaction Buffer, for 5 plates prepare 25 ml as follows: 2.5 mls 1M HEPES pH7.4 (stored sterile at 4° C.), 21.85 ml distilled water, 0.1 ml 5% BSA, 0.5 ml 10 mM sodium orthovanadate (stored sterile at 4° C.), 50 μl 1.0M DTT (stored frozen at […]), and 2.5 μl Src Kinase (stored frozen at −80° C.).
5. Add 48 μl of distilled water to the 2 ∥l of each compound in the dilution plate then add 25 μl/well of this to the reaction plate.
6. Add 50 μl of […] to each reaction buffer well and then 25 μl ATP-MgCl2/well (MgCl2 only to no ATP blanks). Incubate at room temperature for 15 minutes on plate shaker. Stop reaction by adding 25 μl of 0.5M EDTA to each well.
7. Wash 4× with PBS-TWEEN.
8. […] Incubate with continuous shaking at room temperature for one hour.
9. Wash plates 4× with PBS-TWEEN.
10. Add 100 μl HPP-linked Ig (1:5,000) in PBS-TWEEN containing 0.5% BSA, 0.025% Non-fat milk powder, 100 μM sodium orthovanadate. Incubate with shaking at room temperature for one hour.
11. Wash plates 4× with PBS-TWEEN and then once with PBS.
12. Develop plate using ABTS or other peroxidase substrate.

Consider `COc1ccc(-c2cccc3c2/C(=C/c2[nH]c(C)c(C(=O)N4C[C@@H](C)N[C@@H](C)C4)c2C)C(=O)N3)cc1` [Example 40, 3-[4-((cis)-3,5-Dimethyl-piperazine-1-carbonyl)-3,5-dimethyl-1H-pyrrol-2-ylmethylene]-4-(4-methoxy-phenyl)-1,3-dihydro-indol-2-one], for which the results for the 50% inhibitory concentration (IC50) at PDGFR and at SRC were 11.1 µM and 6.57 µM, respectively.
The like results for `COc1ccc(-c2cccc3c2/C(=C/c2[nH]c(C)cc2C(=O)NCCN2CCCC2)C(=O)N3)cc1` [Example 41, 2-[4-(4-Methoxy-phenyl)-2-oxo-1,2-dihydro-indol-3-ylidenemethyl]-5-methyl-1H-pyrrole-3-carboxylic Acid (2-Pyrrolidin-1-yl-ethyl)-amide] were, in that order, 3.84 µM and 5.42 µM.
The matching figures for `CCN(CC)CCNC(=O)c1c(C)[nH]c(/C=C2\C(=O)Nc3cccc(-c4cccc(OC)c4)c32)c1C` [Example 46, 5-[4-(3-Methoxy-phenyl)-2-oxo-1,2-dihydro-indol-3-ylidenemethyl]-2,4-dimethyl-1H-pyrrole-3-carboxylic Acid (2-Diethylamino-ethyl)-amide]: 4.19 µM and 0.66 µM.
For the compound `COc1cccc(-c2cccc3c2/C(=C/c2[nH]c(C)c(C(=O)NCCn4ccnn4)c2C)C(=O)N3)c1` [Example 48, 5-[4-(3-Methoxy-phenyl)-2-oxo-1,2-dihydro-indol-3-ylidenemethyl]-2,4-dimethyl-1H-pyrrole-3-carboxylic Acid (2-[1,2,3]Triazol-1-yl-ethyl)-amide], the IC50 (in general, the concentration at which inhibition is half-maximal) on PDGFR turned out to be 8.39 µM; at SRC, 3.8 µM.
The matching figures for `COc1cccc(-c2cccc3c2/C(=C/c2[nH]c(C)c(C(=O)NCCN(C(C)C)C(C)C)c2C)C(=O)N3)c1` [Example 52, 5-[4-(3-Methoxy-phenyl)-2-oxo-1,2-dihydro-indol-3-ylidenemethyl]-2,4-dimethyl-1H-pyrrole-3-carboxylic Acid (2-Diisopropylamino-ethyl)-amide]: 1.54 µM and 0.54 µM.
The matching figures for `Cc1[nH]c(/C=C2\C(=O)Nc3cccc(-c4ccc(Br)cc4)c32)c(C)c1C(=O)N1CCN(C)CC1` [Example 53]: above 20 µM and 13.5 µM.
As to `Cc1[nH]c(/C=C2\C(=O)Nc3cccc(-c4ccc(Br)cc4)c32)c(C)c1C(=O)N1C[C@@H](C)N[C@@H](C)C1` [Example 57, 4-(4-Bromo-phenyl)-3-[4-[(cis)-3,5-dimethyl-piperazine-1-carbonyl)-3,5-dimethyl-1H-pyrrol-2-ylmethylene]-1,3-dihydro-indol-2-one], the IC50 on PDGFR is above 20 µM; at SRC, 4.74 µM.
The matching figures for `Cc1cc(C(=O)NCCN2CCCC2)c(/C=C2\C(=O)Nc3cccc(-c4ccc(Br)cc4)c32)[nH]1` [Example 58, 2-[4-(4-Bromo-phenyl)-2-oxo-1,2-dihydro-indol-3-ylidenemethyl]-5-methyl-1H-pyrrole-3-carboxylic Acid (2-Pyrrolidin-1-yl-ethyl)-amide]: 16.1 µM and 4.81 µM.
The matching figures for `Cc1[nH]c(/C=C2\C(=O)Nc3cccc(-c4ccc(Br)cc4)c32)c(C)c1C(=O)NCCN(C(C)C)C(C)C` [Example 60, 5-[4-(4-Bromo-phenyl)-2-oxo-1,2-dihydro-indol-3-ylidenemethyl]-2,4-dimethyl-1H-pyrrole-3-carboxylic Acid (2-Diisopropylamino-ethyl)-amide]: 2.37 µM and 2.01 µM.
The like results for `CCN(CC)CCNC(=O)c1c[nH]c(/C=C2\C(=O)Nc3cccc(-c4ccc(Br)cc4)c32)c1C` [Example 61, 5-[4-(4-Bromo-phenyl)-2-oxo-1,2-dihydro-indol-3-ylidenemethyl]-4-methyl-1H-pyrrole-3-carboxylic Acid (2-Diethylamino-ethyl)-amide] were, in that order, 9.12 µM and 1.72 µM.
